Data reported in patent publication US7511144B2, “Reverse hydroxamic acid derivatives” (Kaken Pharmaceutical Co., Ltd., priority 2001, dated 2009).
pIC50: −log10 of the molar value.

Tests used:
Assay type in all cases: biochemical
Human MMP17 = target: T1, Human MMP17 (Homo sapiens, UniProt Q9ULZ9); experiment: MMP17 inhibition test; conditions: concentration required for 50% inhibition of enzyme activity; read-out: IC50 value MMP-17
T1 construct: purchased Calbiochem 475940
T1 sequence (Q9ULZ9 126-300 limits assumed): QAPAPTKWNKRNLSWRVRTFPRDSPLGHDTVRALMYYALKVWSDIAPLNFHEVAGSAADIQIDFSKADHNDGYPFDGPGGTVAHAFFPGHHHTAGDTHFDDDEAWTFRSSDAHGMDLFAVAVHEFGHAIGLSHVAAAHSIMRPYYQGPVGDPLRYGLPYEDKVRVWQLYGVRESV

TACE = target: T2, TACE (Homo sapiens, UniProt P78536); experiment: TACE inhibition experiment (in vitro)
T2 construct: made in house; host or cells: mammalian cells or insect cells
T2 sequence (P78536 215-824): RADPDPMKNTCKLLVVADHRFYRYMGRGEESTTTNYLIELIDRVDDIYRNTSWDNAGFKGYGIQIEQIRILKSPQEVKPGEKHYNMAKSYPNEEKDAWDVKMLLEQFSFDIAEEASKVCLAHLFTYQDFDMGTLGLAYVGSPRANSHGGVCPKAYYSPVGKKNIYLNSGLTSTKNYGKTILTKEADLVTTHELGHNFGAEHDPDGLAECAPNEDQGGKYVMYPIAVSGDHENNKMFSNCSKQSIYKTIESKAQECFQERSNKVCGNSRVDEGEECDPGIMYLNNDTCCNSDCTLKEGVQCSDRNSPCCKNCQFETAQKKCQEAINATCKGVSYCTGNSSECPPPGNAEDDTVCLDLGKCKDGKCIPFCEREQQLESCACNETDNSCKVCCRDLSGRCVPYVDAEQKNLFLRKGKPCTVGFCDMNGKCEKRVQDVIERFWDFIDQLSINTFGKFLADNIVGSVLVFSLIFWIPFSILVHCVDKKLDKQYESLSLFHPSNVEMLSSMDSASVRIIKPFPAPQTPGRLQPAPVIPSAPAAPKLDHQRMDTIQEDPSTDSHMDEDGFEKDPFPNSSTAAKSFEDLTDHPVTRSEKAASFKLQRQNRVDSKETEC

Human MMP9 = target: T3, Human MMP9 (Homo sapiens, UniProt P14780); experiment: MMP9 inhibition experiment; conditions: read-out: IC50 value MMP-9
T3 construct: purchased Calbiochem 444231
T3 sequence (P14780 107-707 limits assumed): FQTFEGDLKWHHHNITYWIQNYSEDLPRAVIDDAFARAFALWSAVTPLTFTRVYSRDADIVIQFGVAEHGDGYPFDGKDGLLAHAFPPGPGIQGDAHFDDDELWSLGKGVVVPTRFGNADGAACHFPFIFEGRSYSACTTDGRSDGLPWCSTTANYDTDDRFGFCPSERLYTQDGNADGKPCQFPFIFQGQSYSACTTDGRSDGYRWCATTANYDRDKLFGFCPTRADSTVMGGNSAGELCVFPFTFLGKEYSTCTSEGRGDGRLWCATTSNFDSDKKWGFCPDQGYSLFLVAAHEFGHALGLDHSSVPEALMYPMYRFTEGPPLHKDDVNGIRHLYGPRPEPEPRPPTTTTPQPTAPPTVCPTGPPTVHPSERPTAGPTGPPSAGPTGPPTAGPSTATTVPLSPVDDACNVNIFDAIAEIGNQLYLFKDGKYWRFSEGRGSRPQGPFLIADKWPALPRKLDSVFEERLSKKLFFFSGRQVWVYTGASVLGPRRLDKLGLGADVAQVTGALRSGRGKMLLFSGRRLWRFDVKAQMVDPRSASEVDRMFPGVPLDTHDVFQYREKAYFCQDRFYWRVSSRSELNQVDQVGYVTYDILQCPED

Human MMP13 = target: T4, Human MMP13 (Homo sapiens, UniProt P45452); experiment: MMP13 inhibition experiment; conditions: concentration required for 50% inhibition of enzyme activity; read-out: IC50 value MMP-13
T4 construct: purchased Chemicon CC068

Human MMP14 = target: T5, Human MMP14 (Homo sapiens, UniProt P50281); experiment: MMP14 inhibition experiment; conditions: concentration required for 50% inhibition of enzyme activity; read-out: IC50 value MMP-14
T5 construct: purchased Biogenesis or Calbiochem 5980-1461 or 475935
Summary of the method: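 Fluorescence assay: substrate Dnp-Pro-Cha-Gly-Cys(Me)-His-Ala-Lys(Nma)-NH2 (20 μM before equal-volume mixing) incubated at 37° C for 5 hours with 4 ng human MMP14.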

Human MMP3 = target: T6, Human MMP3 (Homo sapiens, UniProt P08254); experiment: MMP3 inhibition experiment; conditions: concentration required for 50% inhibition of enzyme activity; read-out: IC50 value MMP-3
T6 construct: purchased Calbiochem 444217
T6 sequence (P08254 100-272 limits assumed): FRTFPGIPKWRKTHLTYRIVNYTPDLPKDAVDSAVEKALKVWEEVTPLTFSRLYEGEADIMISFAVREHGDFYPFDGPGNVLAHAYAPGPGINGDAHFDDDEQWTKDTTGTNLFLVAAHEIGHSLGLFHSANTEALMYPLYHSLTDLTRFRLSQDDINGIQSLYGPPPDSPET
Summary of the method: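 Fluorescence-quenched substrate NFF-3 (MOCAc/Dnp peptide, 20 μM as prepared) cleaved by 5 ng human MMP3 over 5 hours at 37° C, with inhibition measured from substrate fluorescence.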

Human MMP8 = target: T7, Human MMP8 (Homo sapiens, UniProt P22894); experiment: MMP8 inhibition experiment; conditions: concentration required for 50% inhibition of enzyme activity; read-out: IC50 value MMP-8
T7 construct: purchased Calbiochem 444229
T7 sequence (P22894 101-467): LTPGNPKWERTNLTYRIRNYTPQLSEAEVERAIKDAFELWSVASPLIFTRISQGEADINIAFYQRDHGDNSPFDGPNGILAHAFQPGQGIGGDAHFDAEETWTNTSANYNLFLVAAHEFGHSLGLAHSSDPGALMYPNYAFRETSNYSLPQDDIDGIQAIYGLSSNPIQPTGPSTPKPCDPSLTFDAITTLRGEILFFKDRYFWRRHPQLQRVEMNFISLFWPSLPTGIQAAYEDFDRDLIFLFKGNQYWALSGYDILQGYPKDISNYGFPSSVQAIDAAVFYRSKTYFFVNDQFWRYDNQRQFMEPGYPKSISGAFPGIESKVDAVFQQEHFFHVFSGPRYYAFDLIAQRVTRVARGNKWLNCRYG
Summary of the method: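 Human MMP8 activated with APMA for 1 h at 37° C, then incubated with fluorogenic peptide MOCAc-Pro-Leu-Gly-Leu-A2pr(Dnp)-Ala-Arg-NH2 (20 μM stock) for 5 hours at 37° C. Fluorescent substrate cleavage serves as read-out.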

Human MMP2 = target: T8, Human MMP2 (Homo sapiens, UniProt P08253); experiment: MMP2 inhibition experiment; conditions: concentration required for 50% inhibition of enzyme activity; read-out: IC50 value MMP-2
T8 construct: purchased Calbiochem 444213
T8 sequence (P08253 110-660): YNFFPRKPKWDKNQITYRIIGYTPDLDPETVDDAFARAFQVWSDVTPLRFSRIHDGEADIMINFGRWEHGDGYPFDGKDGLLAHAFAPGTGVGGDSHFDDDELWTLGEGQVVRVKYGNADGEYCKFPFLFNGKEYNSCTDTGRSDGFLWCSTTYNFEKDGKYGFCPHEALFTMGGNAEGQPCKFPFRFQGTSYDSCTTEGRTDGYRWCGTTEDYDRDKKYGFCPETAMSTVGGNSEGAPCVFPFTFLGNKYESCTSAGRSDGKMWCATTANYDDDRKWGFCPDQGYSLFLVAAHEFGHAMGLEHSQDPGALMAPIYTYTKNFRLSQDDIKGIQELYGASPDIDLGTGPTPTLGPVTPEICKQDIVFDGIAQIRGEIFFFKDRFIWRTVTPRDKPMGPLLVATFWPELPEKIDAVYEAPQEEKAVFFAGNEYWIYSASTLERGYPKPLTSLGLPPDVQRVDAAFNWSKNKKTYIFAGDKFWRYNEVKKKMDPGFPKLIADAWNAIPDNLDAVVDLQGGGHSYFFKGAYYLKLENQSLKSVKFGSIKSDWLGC

Human MMP1 = target: T9, Human MMP1 (Homo sapiens, UniProt P03956); experiment: MMP1 inhibition experiment; conditions: read-out: IC50 value MMP-1
T9 construct: purchased Calbiochem 444208
T9 sequence (P03956 100-469): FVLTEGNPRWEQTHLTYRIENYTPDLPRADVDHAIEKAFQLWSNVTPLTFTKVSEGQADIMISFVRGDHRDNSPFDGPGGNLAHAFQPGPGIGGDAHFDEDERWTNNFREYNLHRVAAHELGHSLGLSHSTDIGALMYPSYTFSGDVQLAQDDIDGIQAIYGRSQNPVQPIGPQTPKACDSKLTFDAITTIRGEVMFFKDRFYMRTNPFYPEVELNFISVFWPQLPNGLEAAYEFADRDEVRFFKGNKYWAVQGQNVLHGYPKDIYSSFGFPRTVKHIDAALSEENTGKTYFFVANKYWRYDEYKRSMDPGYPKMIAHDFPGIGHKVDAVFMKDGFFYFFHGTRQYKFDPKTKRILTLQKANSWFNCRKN

Compound	pIC50 (Human MMP17)	pIC50 (TACE)	pIC50 (Human MMP9)	pIC50 (Human MMP13)	pIC50 (Human MMP14)	pIC50 (Human MMP3)	pIC50 (Human MMP8)	pIC50 (Human MMP2)	pIC50 (Human MMP1)
Cc1cc(COc2ccc(S(=O)(=O)CC(N(O)C=O)C3(C)CCC4(CC3)OCCO4)cc2)c2ccccc2n1 (stereo not drawn) [Example I-47]	6.40	7.52	< 4.00	4.74	4.22	6.22	4.82	4.66	< 4.00
Cc1cc(COc2ccc(S(=O)(=O)CC(C3CSC(=O)N3C)N(O)C=O)cc2)c2ccccc2n1 (stereo not drawn) [Example I-58]	6.24	8.51	< 4.00	4.57	< 4.00	5.72	4.96	4.68	< 4.00
CCC(CC)C(=O)N1CCC(CC(CS(=O)(=O)c2ccc(OCc3cc(C)nc4ccccc34)cc2)N(O)C=O)C(C)C1 (stereo not drawn) [Example I-64]	6.24	8.29	4.24	4.77	4.19	6.15	4.77	5.05	4.24
Cc1cc(COc2ccc(S(=O)(=O)CC(CCC3=CCCC(OC=O)C3)N(O)C=O)cc2)c2ccccc2n1 (stereo not drawn) [Example I-38]	5.66	7.92	4.27	4.66	4.30	5.70	4.34	4.92	4.24
Cc1cc(COc2ccc(S(=O)(=O)CC(N(O)C=O)C3(C)CCC(=O)CC3)cc2)c2ccccc2n1 (stereo not drawn) [Example I-48]	6.00	7.72	< 4.00	4.30	< 4.00	5.55	4.74	4.15	< 4.00
CC(=O)N1CCC(CC(CS(=O)(=O)c2ccc(OCc3cc(C)nc4ccccc34)cc2)N(O)C=O)CC1 (stereo not drawn) [Example I-69]	6.35	8.28	< 4.00	4.89	< 4.00	6.20	5.01	5.05	< 4.00
Cc1cc(COc2ccc(S(=O)(=O)CC(N(O)C=O)C3(C)CCOCC3)cc2)c2ccccc2n1 (stereo not drawn) [Example I-60, N-hydroxy-N-{2-[4-(2-methylquinolin-4-ylmethoxy)benzenesulfonyl]-1-(4-methyltetrahydropyran-4-yl)ethyl}formamide]	6.29	8.08	< 4.00	4.25	< 4.00	5.60	5.00	4.22	< 4.00
Cc1cc(COc2ccc(S(=O)(=O)CC(c3cccnc3C)N(O)C=O)cc2)c2ccccc2n1 (stereo not drawn) [Example I-67]	5.85	8.52	< 4.00	4.52	4.15	5.57	4.74	4.70	< 4.00
Cc1cc(COc2ccc(S(=O)(=O)CC(CCc3cccnc3)N(O)C=O)cc2)c2ccccc2n1 (stereo not drawn) [Example I-56]	5.92	8.40	4.26	5.19	4.38	6.00	5.14	5.51	4.15
COc1ccc(CCC(CS(=O)(=O)c2ccc(OCc3cc(C)nc4ccccc34)cc2)N(O)C=O)cc1 (stereo not drawn) [Example I-35]	5.22	7.49	4.43	5.11	4.42	5.00	4.46	5.38	4.30
Cc1ccc2nc(C)cc(COc3ccc(S(=O)(=O)CC(C=C4CCC(=NO)CC4)N(O)C=O)cc3)c2c1 (stereo not drawn) [Example I-75]	4.96	8.39	4.46	4.66	4.40	5.26	4.05	4.30	4.19

Now from value to molecule:

pIC50 (Human MMP17)	pIC50 (TACE)	pIC50 (Human MMP9)	pIC50 (Human MMP13)	pIC50 (Human MMP14)	pIC50 (Human MMP3)	pIC50 (Human MMP8)	pIC50 (Human MMP2)	pIC50 (Human MMP1)	Compound
4.40	6.64	< 4.00	4.51	< 4.00	4.52	4.49	4.70	< 4.00	COCc1cc(COc2ccc(S(=O)(=O)CC(C=C3CCC4(CC3)OCCO4)N(O)C=O)cc2)cc(C)n1 (stereo not drawn) [Example I-118]
5.10	8.29	< 4.00	4.77	4.19	5.66	4.70	4.96	< 4.00	Cc1ccc(C(CS(=O)(=O)c2ccc(OCc3cc(C)nc4ccc(F)cc34)cc2)N(O)C=O)cn1 (stereo not drawn) [Example I-81]
4.38	6.80	< 4.00	4.41	< 4.00	4.15	4.55	4.59	< 4.00	COCc1cc(COc2ccc(S(=O)(=O)CC(C=C3CCOCC3)N(O)C=O)cc2)cc(C)n1 (stereo not drawn) [Example I-116]
4.38	6.85	< 4.00	5.10	< 4.00	4.40	5.22	5.40	< 4.00	Cc1cc(COc2ccc(S(=O)(=O)CC(C=C3CCOCC3)N(O)C=O)cc2)cc(C)n1 (stereo not drawn) [Example I-115]
7.00	7.70	4.30	5.49	4.66	6.70	5.39	5.36	4.33	Cc1cc(COc2ccc(S(=O)(=O)CC(C3CCCN(C(=O)c4ccccc4)C3)N(O)C=O)cc2)c2ccccc2n1 (stereo not drawn) [Example I-131]
5.12	7.59	4.10	4.55	4.26	5.52	< 4.00	4.15	4.13	Cc1ccc2nc(C)cc(COc3ccc(S(=O)(=O)CC(c4ccccc4C)N(O)C=O)cc3)c2c1 (stereo not drawn) [Example I-77]
4.52	5.46	4.49	4.59	4.42	4.30	< 4.00	5.38	4.04	Cc1ccccc1C(CS(=O)(=O)c1ccc(OCc2ccc3ccccc3n2)cc1)N(O)C=O (stereo not drawn) [Example I-82]
4.48	6.96	< 4.00	4.21	< 4.00	4.17	4.57	4.66	< 4.00	COCc1cc(COc2ccc(S(=O)(=O)CC(C=C3CCC(=NO)CC3)N(O)C=O)cc2)cc(C)n1 (stereo not drawn) [Example I-120]
